Laboratory results published in patent US7741274B2, “Casein derived peptides and uses thereof in therapy” (priority 2000, dated 2010).

Legend:
[1] = system: Non-Obese Diabetic (NOD) mice; assay: Prevention of glucosuria / Juvenile (Type I, IDDM) Diabetes in NOD mice; assay type: in vivo, mouse; settings: for onset of glucosuria: assayed at week 16, untreated controls 100% glucosuria, data not shown; for Healthy/Total* (healthy and well = sugar not detected in urine): female NOD mice
Description: Juvenile (Type I, IDDM) Diabetes in Non-Obese Diabetic (NOD) Mice:
Peptides Derived from Natural Casein:
NOD mice are a commonly used model for research of autoimmune disease and human Juvenile Diabetes. Six week old female NOD mice received either one or two injections per week of 100 μg of peptides derived from natural casein, for a total of 5 or 11 treatments. Control mice received no treatment. The severity of disease was determined according to glucosuria, which was measured using Combi test sticks [Gross, D. J. et al. (1994), Diabetology, 37:1195]. Results were expressed as the percent of glucosuria-free mice in each sample over a 365-day period.
Synthetic Peptides Derived from Casein:
In another experiment, 6 week old female NOD mice received one injection per week of 100 μg of Synthetic peptides derived from casein for a total of 5 treatments. Control mice received no treatment. Results were expressed as the number of healthy mice in the various treated groups.

[2] = system: human Peripheral Blood Stem Cells (PBSC); assay: Natural Killer (NK) cell activity in cultured human PBSC (lysis of K562 target cells); assay type: cell-based
Description: Stimulation of Proliferation of Natural Killer (NK) Cells:
From human Peripheral Blood Stem Cells (PBSC): PBSC of G-CSF treated subjects were separated on a FICOLL gradient, washed twice with RPMI-1640 medium and seeded into 1.5 ml wells with or without peptides derived from natural casein or synthetic peptides derived from casein, as indicated, (0-500 μg per ml). Following two days incubation the cells were assayed for Natural Killer activity by measuring radioactivity released from ^35S-labeled K562 target cells (NEG-7Q9A, 185.00 MBq, 2.00 mCi EASYTAGth Methionine, L-[^35S] 43.48 TBq per mmol, 1175.0 Ci per mmol, 0.488 ml, Boston USA). Two concentrations of effector cells ([…] cells per well) were incubated with 5×10^3 target cells per well (effector:target cell ratios of 50:1 and 100:1, respectively) in U-bottomed 96 well tissue culture plates. The cells were incubated for 5 hours at 37° C. in 5% CO2, 95% air and precipitated by 5 minutes centrifugation at 1000 rpm. ^35S release was measured in 50 μl samples of the supernatant liquid.

HIV-1IIIB = assay: Inhibition of HIV-1 infection of CEM lymphocytes (cell counts, P24 antigen assay); assay type: cell-based; settings: for HIV-1 infection level, P24 antigen: untreated control 0.52
Description: Inhibition of in vitro HIV infection of human lymphocyte cells:
Peptides: Peptides (either peptides derived from natural casein or synthetic peptides derived from casein (1-25 amino acids in length, see table 3) supplied as lyophilized powder were resuspended in RPMI complete medium and added to cell cultures at a final concentrations of 50 to 1000 μg per ml.
Cells: Several types of freshly isolated human cells (primary cells) and cell lines are known to be susceptible to in vitro HIV-1 infection, although essentially any cell displaying even low surface levels of the CD4 molecule can be considered a potential target for HIV-1 infection. Two commonly used human cell lines which are highly sensitive for HIV-1 infection were chosen, CEM and Sup-T1.
CEM is a human T4-lymphoblastoid cell line initially derived by G. E. Foley et al. [(1965), Cancer 18:522] from peripheral blood buffy coat of a person with acute lymphoblastic leukemia. These cells were continuously maintained in suspension in medium, and have been used widely for analysis of infectivity, antiviral agents and neutralizing antibodies.
Virus: The HIV virus strain employed was HIV-1IIIB, originally designated HTLV-IIIB. Concentrated culture fluids of peripheral blood from several patients with AIDS or related diseases were used to establish a permanent productive infection in H-9 cells. This subtype B virus has high capacity to replicate in human T-cell lines. Viral titer was 5.38 ng per ml in stock solution.
HIV-1 P24 antigen capture assay: An HIV-1 P24 Antigen capture assay kit employed was designed to quantitate the HIV-1 P24 core antigen, which is proportionally related to the degree of viral production in cells. This kit was purchased from the AIDS Vaccine program of the SAIC-NCI-Frederick Cancer Research Institute, P.O. Box B, Frederick, Md. 21702, USA and included 96 well plates coated with monoclonal antibody to HIV-1 P24, primary antibody-rabbit anti-HIV P24 serum, secondary antibody-Goat anti-rabbit-IgG (H+ L) peroxidase conjugated antibody, TMB peroxidase substrate system and lysed HIV-1 P24 standard. The HIV-1 P24 antigen capture assay was analyzed by Organon-Technica ELISA reader at 450 nm with a reference at 650 nm.
HIV-1 P24 antigen capture ELISA: HIV infection was measured with an indirect enzyme immunoassay which detects HIV-1 P24 core antigens in tissue culture media. Tissue culture supernatant was reacted with primary rabbit anti-HIV-1 P24 antigen and visualized by peroxidase conjugated goat anti rabbit IgG. The reaction was terminated by adding 4N H2SO4, wherein the intensity of the color developed is proportional to the amount of HIV-1 antigen present in the tissue culture supernatant.
HIV infection of human cultured CD4+ cells: The cells (CEM, Sup-T1) were preincubated with several increasing concentrations of peptides derived from natural casein (50-1000 μg per ml) or synthetic peptides derived from casein (10-500 μg per ml) for 3, 24 (for synthetic and natural peptides) and 48 (only for natural peptides) hours and HIV-1IIIB (45 μg per ml final concentration) was added to each well thereafter. HIV-1IIIB was preincubated with the peptides for 3 hours and then added to cells (5000 cells/well) in tissue culture plates. Controls were IF (Infected, cells cultured with HIV-1 and without peptides), UIF (Uninfected, cells cultured without HIV-1 and without peptides) and UIF+Ch (Uninfected+peptides derived from natural casein, cells cultured in the presence of peptides derived from natural casein {50-1000 μg per ml}) to test the effect of peptides derived from natural casein and synthetic peptides derived from casein on cell viability and growth. Cells were counted for viability and proliferation rate on day 7, 10 and day 14 post infection (the day of P24 antigen culture supernatant harvest). Cells and tissue culture supernatants (media) were harvested and lysed immediately in 1/10 volume of 10% Triton X-100. […]

[3] = system: murine primary bone marrow cells; assay: Multipotential colonies (CFU-GEMM) from murine bone marrow cells, colony and differential counts; assay type: cell-based, mouse; settings: for megakaryocyte formation and development: 8 days treatment; for macrophages, % of total cell count: approximately 17% in unincubated controls
Description: Stimulation of Hematopoiesis from Bone Marrow (BM) Cells in Culture:
Proliferation of megakaryocytes in multipotential colonies (CFU-GEMM) from murine Bone Marrow cells: Primary bone marrow cells (1×10^5 per ml) from 8-12 week-old C3H/HeJ mice were grown in serum-free methyl cellulose-IMDM medium for 8-9 days at 5% CO2, 95% air, at 37° C. The medium, appropriate for the growth of multipotential colonies (CFU-GEMM), contained 1% BSA (Sigma), 10^−4 M thioglycerol (Sigma), 2.8×10^−4 M human transferrin (TF, Biological industries, Israel), 10% WEHI-CM as a source of IL-3 and 2 units per ml erythropoietin (rhEPO, R & D Systems, Minneapolis). Colonies were scored after 8-9 days using an Olympus dark field microscope. They were picked with a micropipette, cytocentrifuged and stained with May-Grunwald-Giemsa for differential counts. At least 700 cells were counted for each preparation. […]
Proliferation of Macrophage cells in CFU-GEMM: Multipotent (CFU-GEMM colonies grown from primary bone marrow cells as described for the assay of megakaryocyte proliferation above were collected, stained and counted for macrophage cells. At least 700 cells were counted for each preparation.
Proliferation of Red Blood Cells in CFU-GEMM: Multipotent (CFU-GEMM) colonies grown from primary bone marrow cells as described for the assay of megakaryocyte proliferation above were collected, stained and counted for red blood cells. At least 700 cells were counted for each preparation. […]

[4] = system: lethally irradiated, bone marrow-reconstituted mice; assay: Leukocyte and platelet reconstitution in bone marrow transplant recipient mice; assay type: in vivo, mouse; settings: for platelet counts: 800 cGy, 100 μg per mouse i.p. on days 4-7; for peripheral white blood cell counts: BALB/c, 600 cGy, 1 mg per mouse intraperitoneal
Description: Leukocyte and platelet reconstitution in bone marrow transplant recipient mice: BALB/c mice were lethally irradiated at a source to skin distance of 70 cm, dosage of 50 cGy per minute, for a total of 600 cGy. The irradiated mice were […] casein, synthetic peptides derived from casein (13-26 amino acids, see Table 3 above), or human serum albumin (controls), following a double-blinded protocol. Leukocyte reconstitution was determined according to cell count in peripheral blood collected at indicated intervals from 6 to 12 days post treatment. Platelet reconstitution was determined by cell count in blood collected from the retro orbital plexus, into heparinized capillaries, at indicated intervals from day 6 to day 15 post treatment.
In an additional series of experiments, CBA mice were lethally irradiated (900 cGy), reconstituted and treated with peptides derived from natural casein or human serum albumin as described above. Platelet reconstitution was assayed as mentioned above.
In a third series of experiments, the mice were irradiated (800 cGy), reconstituted and injected intraperitoneally with 100 μg synthetic peptides derived from casein (peptides 3a and 4P, representing the first 6 and 12 amino acids of the N terminus of αS1 casein, respectively—see Table 3 above) daily, on days 4, 5, 6 and 7 post-transplantation. Platelet reconstitution was assayed at 10 and 12 days post-transplantation.

[5] = system: Non-Obese Diabetic (NOD) mice; assay: Intraperitoneal Glucose Tolerance Test (IPGTT) in NOD mice; assay type: in vivo, mouse; parameters: IPGT TEST 0 min. (pre-load), plasma glucose: unit not given here; settings: individual healthy NOD mice, 25 weeks after peptides
Description: Intraperitoneal Glucose Tolerance Test (IPGTT):
The glucose tolerance test is the definitive method for investigating glucose metabolism and diabetic tendencies in mammals. Twenty five (25) weeks after receiving Synthetic peptides derived from casein, response to a glucose load was assessed with an intraperitoneal glucose tolerance test. Glucose injection consisted of 1 g/kg body weight. Glycemic values were determined from blood drawn prior to test (0 minutes) and 60 minutes after loading.

[6] = 12 days post transplantation, controls 676 (4P) and 461 (3a)
[7] = 100 μg once weekly for 5 weeks, evaluated after 25 weeks

## RPK [1P]
[1]
  onset of glucosuria: effectively prevented
[2]
  effect on NK activity in PBSC cultures from healthy human donors: No significant effect
[2]; 25 μg/ml peptide concentration
  patients (of 5 tested) responding: 3
[2]; 100 μg/ml peptide concentration
  patients (of 5 tested) responding: 1
[2]; 250 μg/ml peptide concentration
  patients (of 5 tested) responding: 1
HIV-1IIIB; 100 μg per ml, 3 hours pretreatment, infected control 1.06×10^6
  lymphocyte cell numbers: 1.29 ×10^6
HIV-1IIIB; 100 μg/ml, 7 days post infection
  HIV-1 infection level, P24 antigen: 0.17 ng P24 Antigen/ml
HIV-1IIIB; 500 μg per ml, 3 hours pretreatment, infected control 1.06×10^6
  lymphocyte cell numbers: 2.01 ×10^6
HIV-1IIIB; 500 μg/ml, 7 days post infection
  HIV-1 infection level, P24 antigen: 0.14 ng P24 Antigen/ml
HIV-1IIIB; 3 hours pretreatment
  resistance of CEM cells to HIV-1 infection (in words): significant degree of resistance to infection

## RPKH [2P]
[1]
  onset of glucosuria: effectively prevented
[3]; 53% in unincubated controls
  red blood cells, % of total cell count: 71%

## RPKHPI [4P]
[4]; 12 days post transplantation
  increase of platelet counts over untreated controls: 29%
[4]; [6]
  platelet counts: 872000 mL⁻¹
[3]
  megakaryocyte formation and development: significant increase
HIV-1IIIB; 25 μg per ml, 3 hours pretreatment, infected control 1.06×10^6
  cell counts: 1.26 ×10^6
HIV-1IIIB; 250 μg per ml, 3 hours preincubation, infected control 1.06×10^6
  cell numbers: 1.59 ×10^6
HIV-1IIIB; 3 hours pretreatment
  resistance of CEM cells to HIV-1 infection (in words): significant effect on the susceptibility
HIV-1IIIB; 7 days post infection
  viral particles by HIV-P24 antigen assay vs untreated, infected control: dose dependent reduction

## RPKHPIK [5P]
[3]
  macrophages, % of total cell count: ~30%

## RPKHPIKH [Y]
[1]; [7]
  Healthy/Total* (healthy and well = sugar not detected in urine): 1/5

## RPKHPIKHQG [1a]
[5]
  IPGT TEST 0 min. (pre-load), plasma glucose: 88
[1]; [7]
  Healthy/Total* (healthy and well = sugar not detected in urine): 1/5

## RPKHPIKHQGLP [3a]
[1]; [7]
  prevention of glucosuria (in words): highly effective
  Healthy/Total* (healthy and well = sugar not detected in urine): 3/5
[4]; 10 days post transplantation
  increase of platelet counts over untreated controls: up to 35.5%
[4]; 10 days post transplantation, control 169
  platelet counts: 229000 mL⁻¹
[4]; 12 days post transplantation
  increase of platelet counts over untreated controls: up to 13.5%
[4]; [6]
  platelet counts: 622000 mL⁻¹
[3]
  megakaryocyte formation and development: significant increase

## RPKHPIKHQGLPQ [A]
[1]; [7]
  Healthy/Total* (healthy and well = sugar not detected in urine): 2/5
[4]; day 10, albumin control 16.7
  peripheral white blood cell counts: 17.2 ×10^6 cells per dl
[4]; day 12, albumin control 46.4
  peripheral white blood cell counts: 65.4 ×10^6 cells per dl

## RPKHPIKHQGLPQE [B]
[5]
  IPGT TEST 0 min. (pre-load), plasma glucose: 130
[5]; glucose 1 g/kg i.p.
  IPGT TEST 60 min. post load, plasma glucose: 97 mmol/L
[1]; [7]
  Healthy/Total* (healthy and well = sugar not detected in urine): 2/5

## RPKHPIKHQGLPQEVL [D]
[1]; [7]
  Healthy/Total* (healthy and well = sugar not detected in urine): 2/5
[3]
  macrophages, % of total cell count: ~30%

## RPKHPIKHQGLPQEVLN
[4]; day 10, albumin control 16.7
  peripheral white blood cell counts: 27.4 ×10^6 cells per dl
[4]; day 12, albumin control 46.4
  peripheral white blood cell counts: 52.0 ×10^6 cells per dl
[3]
  megakaryocyte formation and development: significant increase

## RPKHPIKHQGLPQEVLNE [F]
[3]
  megakaryocyte formation and development: significant increase

## RPKHPIKHQGLPQEVLNEN
[3]
  megakaryocyte formation and development: significant increase

## RPKHPIKHQGLPQEVLNENL
[3]
  megakaryocyte formation and development: significant increase

## RPKHPIKHQGLPQEVLNENLL
[1]; [7]
  Healthy/Total* (healthy and well = sugar not detected in urine): 2/5
[3]
  megakaryocyte formation and development: significant increase

## RPKHPIKHQGLPQEVLNENLLR [J]
[1]; [7]
  Healthy/Total* (healthy and well = sugar not detected in urine): 3/5

## RPKHPIKHQGLPQEVLNENLLRF
[1]; [7]
  Healthy/Total* (healthy and well = sugar not detected in urine): 2/5
[3]
  macrophages, % of total cell count: ~30%

## RPKHPIKHQGLPQEVLNENLLRFF
[3]
  megakaryocyte formation and development: significant increase
